Experimental data from patent US5646188A, “Polyamine derivatives of 1-aminoindan” (priority 1995, dated 1997).
Where two headings read alike, the source gives them in different places.

Legend:
[1] = system: pyramidal neurons throughout the CA1 layer of the anterior hippocampus; experiment: Global Brain Ischemia In Gerbils; format: in vivo, mongolian gerbils; conditions: Meriones unguiculatus, Pyramidal neuron, ip, 336 h, read-out: PERCENT PROTECTION
Method: Male mongolian gerbils, aged 2.5-5 months, housed 4-8 in a cage, were supplied freely with food and water and maintained at 24° C. with a 12 hour day/night cycle.
For surgery the animals were anesthetized with halothane (1.5% in 100% O2) and the common carotid arteries exposed bilaterally through a midline ventral neck incision. Each artery was clamped for 5 minutes with aneurysm clips to produce global brain ischemia. The anesthesia was discontinued upon clamping. After 5 minutes the clamps were removed and the wound closed with skin clips.
For treatment, the test compound or vehicle was injected intra-peritoneally(ip) in a volume of 50 microlitres of solvent per 10 g body weight. The first injection was given two minutes after clamp removal, and thereafter daily for the next 2 post-operative days (total of 3 injections).
Seven groups each of 4-8 animals were compared:
I. Control; (sham- or unoperated and saline treated),
II. Vehicle treated, unoperated (when solvent is other than saline),
III. Ischemia--untreated or saline treated),
IV. Ischemia--vehicle treated (when solvent is other than saline),
V. Ischemia--Test compound treated, one sub-group per concentration tested,
VI. Ischemia and pentobarbital (40 mg/kg) as positive control).
Analysis of neuronal damage was performed 14 days post-ischemia by counting pyramidal neurons throughout the CA1 layer of the anterior hippocampus in […] thick (paraffin) coronal brain sections stained with hematoxylin and erosin.
Percent Protection values represent the fraction of hippocampi protected from ischemia in a group of animals treated with the stated dose of compound.

[2] = in vitro; conditions: rat, cerebellum cell culture
Method: The cerebellum was aseptically dissociated from 6 or 7-day old rat pups and placed in a 15 ml sterile plastic conical tube containing 3 ml of Dulbecco's modified Eagle's medium (DMEM) with a high glucose concentration ([…]) and 2 mM (v/v) L-glutamine and an antibiotic antimitotic mixture. The cerebella were then dissociated after 20-25 passages through a sterile 13 gauge, 10 cm long stainless steel needle attached to a 5 ml syringe with an inserted 45 micrometer pore nylon sieve. The dissociated cells were centrifuged at 200 g for 5 minutes. […] Cell viability was determined by the tryptan blue exclusion test.
Cells were plated at a density of 200/mm^2 on poly-L-lysine coated surfaces. Poly-L-lysine coated glass coverslips were prepared at least one hour in advance of plating by immersing sterile coverslips in sterile distilled water solution containing 15 microgram/ml poly-L-lysine, and washing in sterile water just prior. to use. […] After three days in culture, the media was replaced with media containing the desired test compound. Each test compound was tested in duplicate. Toxic-dose response was determined for each compound over a range from 0.005-1000 micromole. Four groups were run in each set of experiments;
Nerve cell survival was evaluated by phase contrast microscopy and tryptan blue staining after 24 hours.
Toxic dose-response curves were compiled using the protocol described above.

[3] = system: Cultures of Dissociated Neonatal Rat Cerebellum; experiment: Reversal of NMDA Induced Cell Death in cultures of dissociated neonatal rat cerebellum; format: cell-based; conditions: for PERCENT PROTECTION: cell survival minus the NMDA effect (30%); for viability at 0.005 µM: 0.005 μM + NMDA (1 mM, 3 hours); for viability at 0.01 µM: 0.010 μM + NMDA (1 mM, 3 hours); for viability at 0.1 µM: 0.100 μM + NMDA (1 mM, 3 hours); for viability at 1 µM: 1.000 μM + NMDA (1 mM, 3 hours)
Method: The cerebellum was aseptically dissociated from 6 or 7-day old rat pups and placed in a 15 ml sterile plastic conical tube containing 3 ml of Dulbecco's modified Eagle's medium (DMEM) with a high glucose concentration ([…]) and 2 mM (v/v) L-glutamine and an antibiotic antimitotic mixture. The cerebella were then dissociated after 20-25 passages through a sterile 13 gauge, 10 cm long stainless steel needle attached to a 5 ml syringe with an inserted 45 micrometer pore nylon sieve. The dissociated cells were centrifuged at 200 g for 5 minutes.
Cells were plated at a density of 200/mm^2 on poly-L-lysine coated surfaces. […] The plated cells were covered with enriched medium and incubated at 37° C. in an atmosphere of 5% CO2 in air and 97% humidity. […] Each test compound was tested in duplicate. Toxic-dose response was determined for each compound over a range from 0.005-1000 micromole. Four groups were run in each set of experiments;
I. Control, consisting of enriched media alone,
II. N-methyl-D-aspartate (NMDA, 1 mM for 3 hours) as the cytotoxic challenge,
III. Test compound plus NMDA, and
IV. Positive control, spermine, spermidine or putrescine (0.01 micromoles) plus NMDA.
Surviving cells in Culture are measured relative to control (100%) as described above. Percent protection is the Cell Survival for the test compound minus the NMDA effect. […] The Effective Protection was calculated as the percent of the Percent Protection (X) divided by the maximal protection value (e.g. X×100/70).

[4] = 1.0 mg/kg ip, 3 daily injections, 14 days post-ischemia, fraction of hippocampi protected
[5] = 10.0 mg/kg ip, 3 daily injections, 14 days post-ischemia, fraction of hippocampi protected
[6] = Rattus norvegicus, 24 hours, read-out: SURVIVING CELL IN CULTURE (relative to control, 100%)

Compound	responders at 0.1 mg/kg [1]	responders at 1 mg/kg [1]	responders at 10 mg/kg [1]	CC50 at 24 h [2]	responders at 1 mg/kg [1, 4]	responders at 10 mg/kg [1, 5]	PERCENT PROTECTION ([3]; 0.005 μM + NMDA)	PERCENT PROTECTION ([3]; 0.010 μM + NMDA)	viability at 0.005 µM [3, 6]	viability at 0.01 µM [3, 6]	PERCENT PROTECTION ([3]; 0.100 μM + NMDA)	viability at 0.1 µM [3, 6]	PERCENT PROTECTION ([3]; 1.000 μM + NMDA)	viability at 1 µM [3, 6]	PERCENT PROTECTION ([3]; 10.00 μM + NMDA)	viability at 10 µM ([3]; Rattus norvegicus, 10.00 μM + NMDA (1 mM, 3 hours), 24 hours, read-out: SURVIVING CELL IN CULTURE (relative to control, 100%))	responders at 40 mg/kg [1]
N[C@H]1CCc2ccccc21 [(S)-1-aminoindan, reference compound]	0%	50%	75%														
NCCCNCCCCNC1CCc2ccccc21 (stereo not drawn) [Compound 2724]				4 µM	12%	56%	65%	57%	95%	87%							
NCCCCN(CCCN)C1CCc2ccccc21 (stereo not drawn) [Compound 2722, N-(4-amino-n-butyl)-N-(3-amino-n-propyl)-1-aminoindan]				20 µM	50%	25%	85%	57%	115%	87%							
NCCCCNCCCNC1CCc2ccccc21 (stereo not drawn) [Compound 2720]				0.2 µM		58%	42%	8%	72%	38%	2%	32%					
N[C@@H]1C[C@H](N)c2ccccc21 [Compound 2715, cis 1,3-diaminoindan]		75%		10 µM		50%	19%		49%		12%	42%	2%	32%			
NCCCCN(CCCCN)C1CCc2ccccc21 (racemic) [Compound 2711, racemic N,N-di(4-amino-n-butyl)-1-aminoindan]		50%		60 µM		86%	44%	38%	74%	68%	32%	62%					
NCCCCNCCCNCCCCNC1CCc2ccccc21 (stereo not drawn) [Compound 2725]				20 µM	0%	25%	42%	8%	72%	38%	2%	32%					
NCCCNCCCCNCCCNC1CCc2ccccc21 (stereo not drawn) [Compound 2721]				1 µM	12%	67%	-2%	-4%	28%	26%							
NCCCNC1CCc2ccccc21 (stereo not drawn) [Compound 2709, N-(3-aminopropyl)-1-aminoindan]				50 µM	12%	31%	-4%	23%	26%	53%	29%	59%	13%	43%	8%	38%	
NCCCCN(CCCCN)[C@H]1CCc2ccccc21 [Compound 2727, (S)-N,N-di(4-amino-n-butyl)-1-aminoindan]				0.4 µM		28.5%	0%	25%	30%	55%							
NCCCCN(CCCCN)[C@@H]1CCc2ccccc21 [Compound 2726, (R)-N,N-di(4-amino-n-butyl)-1-aminoindan]				1.7 µM		50%	99%	25%	129%	55%							
CCCC(C)C1(CC)C(=O)NC(=O)NC1=O (stereo not drawn) [Pentobarbital, pentobarbital, reference compound]																	87.5%
NCCCCN(CCCCN)C1CCCc2ccccc21 (stereo not drawn) [Compound 2728, N,N-di(4-amino-n-butyl)-1-amino-1,2,3,4-tetrahydronaphthalene]		20%		0.25 µM			-10%	56%	20%	86%							
NCCCCNC1CCc2ccccc21 (stereo not drawn) [Compound 2710]				30 µM	25%	37%					42%	72%	40%	70%			
N[C@@H]1CCc2ccccc21 [(R)-1-aminoindan, reference compound]	25%	25%	25%	175 µM			50%	0%			-2%						
